In patent US12077503B2, “Substituted cyclic amides and their use as herbicides” (FMC CORPORATION, priority 2015, dated 2024) one finds pest or weed control data, which are given here for 2 molecules.

What all share (format): in vivo
In assay [1] the test system is pigweed (Amaranthus retroflexus). Briefly: Test A postemergence. The following applies: Amaranthus retroflexus, post-emergence, 240 h; for pest or weed control at 125 g/ha: 125 g ai/ha. An outline of the steps:
(§1)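 Seeds sprayed preemergence with a directed soil spray, or plants at 2 to 10 cm height and one- to two-leaf stage sprayed postemergence, with test chemicals in a non-phytotoxic solvent mixture containing surfactant, in loam soil–sand blend. Injury rated visually against untreated controls after about 10 d in greenhouse, 0 (no effect) to 100 (complete control).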

The test system of assay [2] is giant foxtail (Setaria faberii). Briefly: Test A postemergence. The conditions noted are these: Setaria faberi, post-emergence, 240 h; for pest or weed control at 125 g/ha: 125 g ai/ha. An outline of the steps: as §1
For assay [3], the system named is barnyardgrass (Echinochloa crus-galli). Briefly: Test A postemergence. The conditions noted are these: Echinochloa crus-galli, post-emergence, 240 h; for pest or weed control at 125 g/ha: 125 g ai/ha. The method, boiled down:
as §1

The test system of assay [4] is ryegrass, Italian (Italian ryegrass, Lolium multiflorum). In words: Test A postemergence. The conditions noted are these: Lolium multiflorum, post-emergence, 240 h; for pest or weed control at 125 g/ha: 125 g ai/ha. The method, boiled down:
as §1

The subject of a further assay is Kochia (Kochia scoparia). Briefly: Test A preemergence. The conditions noted are these: Bassia scoparia, pre-emergence, 240 h, read-out: Plant response rating, Kochia; for pest or weed control at 125 g/ha: 125 g ai/ha; for pest or weed control at 500 g/ha: 500 g ai/ha. The method, boiled down:
as §1

For assay [5], the system named is pigweed (Amaranthus retroflexus). In words: Test A preemergence. The following applies: Amaranthus retroflexus, pre-emergence, 240 h, read-out: Plant response rating, Pigweed; for pest or weed control at 125 g/ha: 125 g ai/ha; for pest or weed control at 500 g/ha: 500 g ai/ha.
Assay [6] has as its system giant foxtail (Setaria faberii). Briefly: Test A preemergence. The conditions noted are these: Setaria faberi, pre-emergence, 240 h, read-out: Plant response rating, Foxtail, Giant; for pest or weed control at 125 g/ha: 125 g ai/ha; for pest or weed control at 500 g/ha: 500 g ai/ha. An outline of the steps:
as §1

The subject of assay [7] is barnyardgrass (Echinochloa crus-galli). Briefly: Test A preemergence. The following applies: Echinochloa crus-galli, pre-emergence, 240 h, read-out: Plant response rating, Barnyardgrass; for pest or weed control at 125 g/ha: 125 g ai/ha; for pest or weed control at 500 g/ha: 500 g ai/ha. An outline of the steps: as §1
Assay [8] has as its system ryegrass, Italian (Italian ryegrass, Lolium multiflorum). Briefly: Test A preemergence. The conditions noted are these: Lolium multiflorum, pre-emergence, 240 h, read-out: Plant response rating, Ryegrass, Italian; for pest or weed control at 125 g/ha: 125 g ai/ha; for pest or weed control at 500 g/ha: 500 g ai/ha. An outline of the steps:
as §1

Assay [9] has as its system ragweed (common ragweed, Ambrosia elatior). In words: Test A preemergence. The following applies: Ambrosia artemisiifolia, pre-emergence, 240 h, read-out: Plant response rating, Ragweed; for pest or weed control at 125 g/ha: 125 g ai/ha; for pest or weed control at 500 g/ha: 500 g ai/ha. An outline of the steps:
as §1

In assay [10] the test system is sedge, umbrella (small-flower umbrella sedge, Cyperus difformis). In words: Test B flooded paddy test. The following applies: Cyperus difformis, Flood, 250 g ai/ha. An outline of the steps: (§2)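 Greenhouse paddy pots with 2-leaf stage plants received compound by direct addition to floodwater 3 cm deep, kept at that level. Scored visually at 13–15 d versus controls (0 no effect; 100 complete control).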

In a further assay the test system is rice (Oryra sativa). In words: Test B flooded paddy test. The conditions noted are these: Oryza sativa, Flood, 250 g ai/ha. The method, boiled down: as §2
Assay [11] concerns barnyardgrass (Echinochloa crus-galli). Briefly: Test B flooded paddy test. The following applies: Echinochloa crus-galli, Flood, 250 g ai/ha. An outline of the steps:
as §2

For assay [12], the system named is ducksalad (Heteranthera limosa). In words: Test B flooded paddy test. The conditions noted are these: Heteranthera limosa, Flood, 250 g ai/ha. An outline of the steps: as §2
Where [13] appears, read: preemergence, visual rating after approx. 10 d, 0 to 100 scale where 0 is no effect and 100 is complete control.
Where [14] appears, read: preemergence, 0 to 100 scale, 0 = no effect, 100 = complete control.
Where [15] appears, read: preemergence, 0 to 100 scale (0 no effect, 100 complete control).
The mark [16] stands for this setting: Preemergence, 0 to 100 scale (0 no effect, 100 complete control).

Read-outs that look alike come from different tables or passages of the source.

Take `CN1C[C@H](c2cc(F)cc(F)c2)[C@@H](C(=O)Nc2ccccc2S(C)(=O)=O)C1=O` [Compound 739]: the pest or weed control at 125 g/ha in [1] (postemergence, visual injury after approximately 10 d, 0 to 100 scale (0 no effect, 100 complete control), read-out: Plant response rating, Pigweed) was determined as 20%; in [2] (postemergence, visual injury after approximately 10 d, 0 to 100 scale (0 no effect, 100 complete control), read-out: Plant response rating, Foxtail, Giant), 90%; in assay [3] (postemergence, visual injury after approximately 10 d, 0 to 100 scale (0 no effect, 100 complete control), read-out: Plant response rating, Barnyardgrass), 90%; in assay [4] (postemergence, visual injury after approximately 10 d, 0 to 100 scale (0 no effect, 100 complete control), read-out: Plant response rating, Ryegrass, Italian), 20%; in the assay on Kochia (Kochia scoparia) (setting [13]) it was 30%; in assay [5] (setting [13]), 0%. Further, the pest or weed control at 125 g/ha amounted to 90% in [6] (setting [13]), 90% in [7] (setting [13]), 0% in [8] (setting [13]) and 50% in assay [9] (setting [13]). For the same molecule, the pest or weed control at 500 g/ha in the assay with Kochia (Kochia scoparia) (setting [14]) stood at 80%; in assay [5] (setting [14]), 30%; in [6] (setting [14]), 100%; in assay [7] (setting [14]), 100%; in assay [8] (setting [14]) it was 30%; in assay [9] (setting [14]), 80%. The pest or weed control at 250 g/ha in [10] (scale of 0 to 100 where 0 is no effect and 100 is complete control, read-out: Sedge, Umbrella plant response rating) was found to be 0%; in the assay on rice (Oryra sativa) (scale of 0 to 100 where 0 is no effect and 100 is complete control, read-out: Rice plant response rating), 0%; in assay [11] (scale of 0 to 100 where 0 is no effect and 100 is complete control, read-out: Barnyardgrass plant response rating), 60%; in assay [12] (scale of 0 to 100 where 0 is no effect and 100 is complete control, read-out: Ducksalad plant response rating), 100%.
On to `C=CN1C[C@H](c2ccc(C)c(F)c2)[C@@H](C(=O)Nc2cccc(F)c2F)C1=O` (racemic) [Compound 1332], for which the pest or weed control at 125 g/ha in assay [1] (Postemergence, visual rating about 10 d after treatment, read-out: Pigweed plant response rating (0 to 100 scale)) amounted to 0%; in assay [2] (Postemergence, visual rating about 10 d after treatment, read-out: Foxtail, Giant plant response rating (0 to 100 scale)) it was 40%; in [3] (Postemergence, visual rating about 10 d after treatment, read-out: Barnyardgrass plant response rating (0 to 100 scale, 0 no effect, 100 complete control)), 50%; in [4] (Postemergence, visual rating about 10 d after treatment, read-out: Ryegrass, Italian plant response rating (0 to 100 scale)), 0%; in the assay on Kochia (Kochia scoparia) (setting [16]), 0%; in assay [5] (setting [16]) it was 0%. Further, the pest or weed control at 125 g/ha was determined as 80% in [6] (setting [16]), 70% in assay [7] (setting [16]), 0% in [8] (setting [16]) and 0% in assay [9] (setting [16]). Also, the pest or weed control at 500 g/ha in assay [1] (Postemergence, 500 g ai/ha, visual injury, 0 to 100 scale (0 no effect, 100 complete control), approx. 10 d, read-out: Plant response rating, Pigweed) is 0%; in assay [2] (Postemergence, 500 g ai/ha, visual injury, 0 to 100 scale (0 no effect, 100 complete control), approx. 10 d, read-out: Plant response rating, Foxtail, Giant), 60%; in [3] (Postemergence, 500 g ai/ha, visual injury, 0 to 100 scale (0 no effect, 100 complete control), approx. 10 d, read-out: Plant response rating, Barnyardgrass) it was 60%; in assay [4] (Postemergence, 500 g ai/ha, visual injury, 0 to 100 scale (0 no effect, 100 complete control), approx. 10 d, read-out: Plant response rating, Ryegrass, Italian) it was 0%; in the assay on Kochia (Kochia scoparia) (setting [15]) it was 0%; in assay [5] (setting [15]), 0%. For the same molecule, the pest or weed control at 500 g/ha in assay [6] (setting [15]) is 90%; in assay [7] (setting [15]) it was 90%; in assay [8] (setting [15]), 0%; in assay [9] (setting [15]), 0%. For the same molecule, the pest or weed control at 250 g/ha in [10] (360 h, visually evaluated after 13 to 15 d, read-out: Plant response rating, Sedge, Umbrella (0 to 100 scale where 0 is no effect and 100 is complete control)) came to 0%; in the assay on rice (Oryra sativa) (360 h, visually evaluated after 13 to 15 d, read-out: Plant response rating, Rice (0 to 100 scale where 0 is no effect and 100 is complete control)), 0%; in [11] (360 h, visually evaluated after 13 to 15 d, read-out: Plant response rating, Barnyardgrass (0 to 100 scale where 0 is no effect and 100 is complete control)), 0%; in assay [12] (360 h, visually evaluated after 13 to 15 d, read-out: Plant response rating, Ducksalad (0 to 100 scale where 0 is no effect and 100 is complete control)) it was 100%.
